Active and inactive are the calls of the source. How the calls were made is not given here.
Tested on: CCRIS mutagenicity, Ames/micronucleus/aberration tests
Assay: CCRIS mutagenicity studies

CC(=O)CN(CC(C)=O)N=O
mutagenic call (Test System: AMES SALMONELLA TYPHIMURIUM, Strain/Indicator: TA100, Metabolic Activation: HAMSTER, LIVER, S-9, 3-METHYLCHOLANTHRENE, Method: PREINCUBATION): active; positive | mutagenic call (Test System: AMES SALMONELLA TYPHIMURIUM, Strain/Indicator: TA100, Metabolic Activation: HAMSTER, LIVER, S-9, PHENOBARBITAL, Method: PREINCUBATION): active; positive | mutagenic call (Test System: AMES SALMONELLA TYPHIMURIUM, Strain/Indicator: TA100, Metabolic Activation: HAMSTER, LIVER, S-9, Method: PREINCUBATION): active; positive | mutagenic call (Test System: AMES SALMONELLA TYPHIMURIUM, Strain/Indicator: TA100, Metabolic Activation: HUMAN, LIVER, S-9, Method: PREINCUBATION): active; positive | mutagenic call (Test System: AMES SALMONELLA TYPHIMURIUM, Strain/Indicator: TA100, Metabolic Activation: MONKEY, LIVER, S-9, Method: PREINCUBATION): active; positive | mutagenic call (Test System: AMES SALMONELLA TYPHIMURIUM, Strain/Indicator: TA100, Metabolic Activation: MOUSE, LIVER, S-9, 3-METHYLCHOLANTHRENE, Method: PREINCUBATION): active; positive | mutagenic call (Test System: AMES SALMONELLA TYPHIMURIUM, Strain/Indicator: TA100, Metabolic Activation: MOUSE, LIVER, S-9, PHENOBARBITAL, Method: PREINCUBATION): active; positive | mutagenic call (Test System: AMES SALMONELLA TYPHIMURIUM, Strain/Indicator: TA100, Metabolic Activation: MOUSE, LIVER, S-9, Method: PREINCUBATION): active; positive | mutagenic call (Test System: AMES SALMONELLA TYPHIMURIUM, Strain/Indicator: TA100, Metabolic Activation: NONE, Method: PREINCUBATION): inactive; negative | mutagenic call (Test System: AMES SALMONELLA TYPHIMURIUM, Strain/Indicator: TA100, Metabolic Activation: RABBIT, LIVER, S-9, Method: PREINCUBATION): active; positive | mutagenic call (Test System: AMES SALMONELLA TYPHIMURIUM, Strain/Indicator: TA100, Metabolic Activation: RAT, LIVER, CYTOSOL, PCB, Method: PREINCUBATION): active; positive | mutagenic call (Test System: AMES SALMONELLA TYPHIMURIUM, Strain/Indicator: TA100, Metabolic Activation: RAT, LIVER, MICROSOMES AND CYTOSOL, PCB, Method: PREINCUBATION): active; positive | mutagenic call (Test System: AMES SALMONELLA TYPHIMURIUM, Strain/Indicator: TA100, Metabolic Activation: RAT, LIVER, MICROSOMES AND G6PDH, PCB, Method: PREINCUBATION): active; positive | mutagenic call (Test System: AMES SALMONELLA TYPHIMURIUM, Strain/Indicator: TA100, Metabolic Activation: RAT, LIVER, MICROSOMES, PCB, Method: PREINCUBATION): active; positive | mutagenic call (Test System: AMES SALMONELLA TYPHIMURIUM, Strain/Indicator: TA100, Metabolic Activation: RAT, LIVER, S-9 (HEATED), PCB, Method: PREINCUBATION): active; positive | mutagenic call (Test System: AMES SALMONELLA TYPHIMURIUM, Strain/Indicator: TA100, Metabolic Activation: RAT, LIVER, S-9, 3-METHYLCHOLANTHRENE, Method: PREINCUBATION): active; positive | mutagenic call (Test System: AMES SALMONELLA TYPHIMURIUM, Strain/Indicator: TA100, Metabolic Activation: RAT, LIVER, S-9, AROCLOR 1254, Method: PREINCUBATION): active; positive | mutagenic call (Test System: AMES SALMONELLA TYPHIMURIUM, Strain/Indicator: TA100, Metabolic Activation: RAT, LIVER, S-9, N-BENZYLIMIDAZOLE, Method: PREINCUBATION): active; positive | mutagenic call (Test System: AMES SALMONELLA TYPHIMURIUM, Strain/Indicator: TA100, Metabolic Activation: RAT, LIVER, S-9, PCB, Method: PREINCUBATION): active; positive | mutagenic call (Test System: AMES SALMONELLA TYPHIMURIUM, Strain/Indicator: TA100, Metabolic Activation: RAT, LIVER, S-9, PHENOBARBITAL, Method: PREINCUBATION): active; positive | mutagenic call (Test System: AMES SALMONELLA TYPHIMURIUM, Strain/Indicator: TA100, Metabolic Activation: RAT, LIVER, S-9, Method: PREINCUBATION): active; positive | mutagenic call (Test System: AMES SALMONELLA TYPHIMURIUM, Strain/Indicator: TA100, Metabolic Activation: RAT, LIVER, S-9 WITHOUT NADP+, PCB, Method: PREINCUBATION): active; positive | mutagenic call (Test System: AMES SALMONELLA TYPHIMURIUM, Strain/Indicator: TA100, Method: PREINCUBATION): active; positive | mutagenic call (Test System: AMES SALMONELLA TYPHIMURIUM, Strain/Indicator: TA104, Metabolic Activation: RAT, LIVER, S-9, AROCLOR 1254, Method: PREINCUBATION): inactive; negative | mutagenic call (Test System: AMES SALMONELLA TYPHIMURIUM, Strain/Indicator: TA1535, Metabolic Activation: RAT, LIVER, S-9, AROCLOR 1254, Method: PREINCUBATION): active; positive | mutagenic call (Test System: AMES SALMONELLA TYPHIMURIUM, Strain/Indicator: TA1975, Metabolic Activation: RAT, LIVER, S-9, AROCLOR 1254, Method: PREINCUBATION): active; positive | mutagenic call (Test System: CHINESE HAMSTER V-79, Strain/Indicator: V-79/6-THIOGUANINE, Metabolic Activation: HAMSTER, PANCREAS, DUCT CELL-MEDIATED, Method: STANDARD PLATE): active; positive | mutagenic call (Test System: CHINESE HAMSTER V-79, Strain/Indicator: V-79/OUABAIN, Metabolic Activation: HAMSTER, HEPATOCYTES, Method: CELL-MEDIATED): active; positive | mutagenic call (Test System: CHINESE HAMSTER V-79, Strain/Indicator: V-79/OUABAIN, Metabolic Activation: HAMSTER, PANCREAS, ACINAR CELL-MEDIATED, Method: STANDARD PLATE): active; positive

— PubChem BioAssay AID1259407 (Chemical Carcinogenesis Research Information System (CCRIS), 2018)
